Values of other authors, collected in US20060280819A1, “Ellagic acid food supplement prepared from pomegranate seed” (priority 2005, published 2006).

Legend:
[1] = test system: breast, pancreas, esophageal, skin, colon and prostate cancer cells
p53 gene = conditions: clinical tests
cancer cells = conditions: lab tests
normal healthy cells = conditions: lab tests

effect on normal healthy cells (normal healthy cells): no change
SMILES: O=c1oc2c(O)c(O)cc3c(=O)oc4c(O)c(O)cc1c4c23 [ellagic acid]
time to G-arrest (inhibiting and stopping mitosis-cancer cell division) [1]: ≤ 48 h | time to apoptosis (normal cell death) [1]: ≤ 72 h | effect on destruction of the p53 gene by cancer cells (p53 gene): prevents the destruction of the p53 gene | apoptosis (cell death) of cancer cells (cancer cells): causes apoptosis
